Measurements as given in ChEMBL document CHEMBL5338738, “Discovery of Novel Sesquiterpene Lactone Derivatives as Potent PKM2 Activators for the Treatment of Ulcerative Colitis” (J Med Chem, 2023).
Active and inactive are the calls of the source. The rule behind the calls is not given here.

What was measured:
Mus musculus [1] = assay: Anti-colitis activity against DSS-induced ulcerative colitis C57BL/6 mouse model assessed as downregulation of IL10 mRNA expression level in colon at 6.25 to 25 mg/kg, po for 10 days consecutively by qPCR assay; format: functional, organism-based; details: dose 6.25-25 mg/kg, time 10.0 day
Pyruvate kinase PKM [2] = molecular target: T1, Pyruvate kinase PKM (Homo sapiens, UniProt P14618); assay: Binding affinity to PKM2 (unknown origin) by SPR assay
[3] = molecular target: Pyruvate kinase PKM (Mus musculus) (UniProt P52480); assay: Binding affinity to PKM2 in C57BL/6 mouse mesenteric lymph node CD4+ve Th cells assessed as increase in denaturation temperature at 3 uM incubated for 4 hrs by Solvent-induced protein precipitation analysis; format: tissue-based; details: filed as activator
[4] = Toxicity in C57BL/6 mouse assessed as histological change in lung at 6.25 to 25 mg/kg, po for 10 days consecutively by H and E staining based microscopy; format: organism-based; details: in vivo, 240 h, dose 6.25-25 mg/kg, time 10 day
[5] = Oral bioavailability in Sprague-Dawley rat at 75 mg/kg and measured upto 24 hrs by LC-MS/MS analysis; format: ADME, organism-based; details: in vivo
Mus musculus [6] = assay: Anti-colitis activity against TNBS-induced ulcerative colitis BALB/c mouse model assessed as decrease in infiltration of inflammatory cells into lamina propria in colon at 12.5 to 25 mg/kg, po for consecutive 7 days by H and E staining based microscopy; format: functional, organism-based; details: dose 12.5-25 mg/kg, time 7.0 day
Mus musculus [7] = assay: Anti-colitis activity against DSS-induced ulcerative colitis C57BL/6 mouse model assessed as decrease in TNF-alpha mRNA expression level in colon at 12.5 to 25 mg/kg, po for 10 days consecutively by qPCR analysis; format: functional, organism-based; details: dose 12.5-25 mg/kg, time 10.0 day
[8] = (§1) Inhibition of Th17 cells differentiation in anti-CD3/CD28 stimulated C57BL/6 mouse mesenteric lymph node CD4+ve Th cells assessed as decrease in proportion of IL17A-positive Th17 cells at 1 uM incubated for 96 hrs in presence of recombinant human TGF-beta, recombinant mouse IL-6 and recombinant mouse IL-23 by flow cytometry (Rvb= 16.7%); format: functional; details: C57BL/6, CD4+ve Th
Mus musculus [9] = assay: Anti-colitis activity against DSS-induced ulcerative colitis C57BL/6 mouse model assessed as increase in colon length at 12.5 to 25 mg/kg, po for 10 days consecutively; format: functional, organism-based; details: dose 12.5-25 mg/kg, time 10.0 day
Mus musculus [10] = assay: Anti-colitis activity against DSS-induced ulcerative colitis C57BL/6 mouse model assessed as downregulation of IL17a mRNA expression level in mesenteric lymph nodes at 12.5 to 25 mg/kg, po for 10 days consecutively by qPCR assay; format: functional, organism-based; details: dose 12.5-25 mg/kg, time 10.0 day
Mus musculus [11] = assay: Anti-colitis activity against TNBS-induced ulcerative colitis BALB/c mouse model assessed as decrease in inflammatory injury by measuring MPO level at 12.5 to 25 mg/kg, po for consecutive 7 days; format: functional, organism-based; details: dose 12.5-25 mg/kg, time 7.0 day
[12] = Toxicity in C57BL/6 mouse assessed as histological change in kidney at 6.25 to 25 mg/kg, po for 10 days consecutively by H and E staining based microscopy; format: organism-based; details: in vivo, 240 h, dose 6.25-25 mg/kg, time 10 day
[13] = Inhibition of Treg cells differentiation in anti-CD3/CD28 stimulated C57BL/6 mouse mesenteric lymph node CD4+ve Th cells assessed as decrease in proportion of Foxp3-positive Treg cells at 0.3 uM incubated for 96 hrs in presence of recombinant human TGF-beta by flow cytometry (Rvb= 21.1%); format: functional; details: C57BL/6, CD4+ve Th
CD4+ve Th [14] = assay: (§2) Inhibition of aerobic glycolysis in anti-CD3/CD28 stimulated C57BL/6 mouse mesenteric lymph node CD4+ve Th cells assessed as reduction in glucose uptake level at 0.3 to 3 uM incubated for 96 hrs in presence of recombinant human TGF-beta, recombinant mouse IL-6 and recombinant mouse IL-23 by NBDG staining based immunofluorescence analysis; format: functional, cell-based; details: dose 0.3-3 µM
CD4+ve Th [15] = assay: Cytotoxicity against C57BL/6 mouse mesenteric lymph node CD4+ve Th cells assessed as reduction in cell viability at 0.3 to 3 uM incubated for 96 hrs by MTT assay; format: toxicity, cell-based; details: dose 0.3-3 µM
CD4+ve Th [16] = assay: (§3) Inhibition of Th17 cells differentiation in anti-CD3/CD28 stimulated C57BL/6 mouse mesenteric lymph node CD4+ve Th cells assessed as downregulation of IL23r mRNA expression level at 0.1 to 3 uM incubated for 96 hrs in presence of recombinant human TGF-beta, recombinant mouse IL-6 and recombinant mouse IL-23 by qPCR analysis; format: functional, cell-based; details: dose 0.1-3 µM
Mus musculus [17] = assay: Anti-colitis activity against DSS-induced ulcerative colitis C57BL/6 mouse model assessed as reduction in spleen index at 12.5 to 25 mg/kg, po for 10 days consecutively; format: functional, organism-based; details: dose 12.5-25 mg/kg, time 10.0 day
[18] = MRT(t) in Sprague-Dawley rat at 75 mg/kg,po and measured upto 24 hrs by LC-MS/MS analysis; format: ADME, organism-based; details: in vivo
[19] = AUCt in Sprague-Dawley rat at 8 mg/kg,iv and measured upto 24 hrs by LC-MS/MS analysis; format: ADME, organism-based; design: time < 24 hrs, dose 8 mg/kg, route iv; details: in vivo
CD4+ve Th [20] = assay: as §2, with “downregulation of HK2 protein expression” for “reduction in glucose uptake”, “Western blot” for “NBDG staining based immunofluorescence”; format: functional, cell-based; details: dose 0.3-3 µM
CD4+ve Th [21] = assay: as §2, with “decrease” for “reduction”, “ATP production” for “glucose uptake level”, “colorimetric assay” for “NBDG staining based immunofluorescence analysis”; format: functional, cell-based; details: dose 0.3-3 µM
CD4+ve Th [22] = assay: as §3, with “IL17a” for “IL23r”; format: functional, cell-based; details: dose 0.1-3 µM
[23] = AUCt in Sprague-Dawley rat at 75 mg/kg,po and measured upto 24 hrs by LC-MS/MS analysis; format: ADME, organism-based; design: time < 24 hrs, dose 75 mg/kg, route po; details: in vivo
Mus musculus [24] = assay: Anti-colitis activity against DSS-induced ulcerative colitis C57BL/6 mouse model assessed as downregulation of Foxp3 mRNA expression level in mesenteric lymph nodes at 6.25 to 25 mg/kg, po for 10 days consecutively by qPCR assay; format: functional, organism-based; details: dose 6.25-25 mg/kg, time 10.0 day
[25] = Toxicity in C57BL/6 mouse assessed as histological change in liver at 6.25 to 25 mg/kg, po for 10 days consecutively by H and E staining based microscopy; format: organism-based; details: in vivo, 240 h, dose 6.25-25 mg/kg, time 10 day
[26] = Tmax in Sprague-Dawley rat at 75 mg/kg,po and measured upto 24 hrs by LC-MS/MS analysis; format: ADME, organism-based; details: in vivo
CD4+ve Th [27] = assay: as §3, with “IL21” for “IL23r”; format: functional, cell-based; details: dose 0.1-3 µM
[28] = Toxicity in C57BL/6 mouse assessed as histological change in heart at 6.25 to 25 mg/kg, po for 10 days consecutively by H and E staining based microscopy; format: organism-based; details: in vivo, 240 h, dose 6.25-25 mg/kg, time 10 day
Mus musculus [29] = assay: Anti-colitis activity against TNBS-induced ulcerative colitis BALB/c mouse model assessed as increase in colon length at 12.5 to 25 mg/kg, po for consecutive 7 days; format: functional, organism-based; details: dose 12.5-25 mg/kg, time 7.0 day
CD4+ve Th [30] = assay: as §3, with “decrease in total PKM2” for “downregulation of IL23r mRNA”, “expression” for “expression level”, “Western blot” for “qPCR”; format: functional, cell-based; details: dose 0.1-3 µM
Pyruvate kinase PKM [31] = molecular target: T1, Pyruvate kinase PKM; assay: Activation of PKM2 (unknown origin) incubated for 30 mins
[32] = as §1, with “at 0.3” for “at 1”; format: functional; details: C57BL/6, CD4+ve Th

T1 sequence (P14618 whole entry): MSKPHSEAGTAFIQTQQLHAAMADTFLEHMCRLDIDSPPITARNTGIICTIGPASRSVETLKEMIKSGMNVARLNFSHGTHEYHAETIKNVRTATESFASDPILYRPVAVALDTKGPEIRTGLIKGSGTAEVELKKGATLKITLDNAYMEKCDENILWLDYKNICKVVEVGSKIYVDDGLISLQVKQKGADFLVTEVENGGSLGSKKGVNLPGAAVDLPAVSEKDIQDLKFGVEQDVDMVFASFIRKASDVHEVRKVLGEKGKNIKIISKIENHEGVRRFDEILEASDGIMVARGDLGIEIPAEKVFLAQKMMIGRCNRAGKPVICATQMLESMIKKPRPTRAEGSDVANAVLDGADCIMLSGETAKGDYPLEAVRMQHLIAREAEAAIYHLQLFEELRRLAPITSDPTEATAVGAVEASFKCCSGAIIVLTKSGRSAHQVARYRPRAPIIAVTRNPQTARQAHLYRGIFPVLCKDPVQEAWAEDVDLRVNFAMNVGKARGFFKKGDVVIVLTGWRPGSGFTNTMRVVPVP
Chain of Pyruvate kinase PKM (Mus musculus) (P52480 whole entry): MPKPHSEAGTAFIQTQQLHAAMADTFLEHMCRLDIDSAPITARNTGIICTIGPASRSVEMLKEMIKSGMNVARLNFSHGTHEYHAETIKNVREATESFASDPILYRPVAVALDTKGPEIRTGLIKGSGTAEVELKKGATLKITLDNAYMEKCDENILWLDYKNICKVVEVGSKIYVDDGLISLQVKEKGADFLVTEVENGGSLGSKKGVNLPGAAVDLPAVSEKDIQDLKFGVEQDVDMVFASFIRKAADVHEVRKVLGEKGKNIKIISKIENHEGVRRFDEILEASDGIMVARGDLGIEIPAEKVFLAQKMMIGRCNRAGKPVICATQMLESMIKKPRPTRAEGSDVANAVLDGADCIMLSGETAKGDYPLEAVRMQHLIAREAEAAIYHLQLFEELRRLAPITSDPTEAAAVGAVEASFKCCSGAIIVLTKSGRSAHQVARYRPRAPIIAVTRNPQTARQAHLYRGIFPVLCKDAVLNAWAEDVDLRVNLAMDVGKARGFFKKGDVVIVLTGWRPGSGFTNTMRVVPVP

Kd (Pyruvate kinase PKM [2]): 18.4 nM | Activity [3]: Active | bioavailability [5]: 2.8% | MRT last at 24 h [18]: 12.4 h | AUC(0-t) at 24 h [19]: 1230 ng·h/mL | AUC(0-t) at 24 h [23]: 322 ng·h/mL | Tmax [26]: 6 h | EC50 (Pyruvate kinase PKM [31]): 202 nM
SMILES: C=C1C(=O)O[C@H]2[C@H]1CC[C@@]1(C)[C@@H](CC[C@@]3(C)O[C@@H]23)C1(F)F
Activity (Mus musculus [1]): inactive | Activity [4]: Non-Toxic | Activity (Mus musculus [6]): Active | Activity (Mus musculus [7]): Active | IL17A+ cells at 1 µM [8]: 8.1% | Activity (Mus musculus [9]): Active | Activity (Mus musculus [10]): Active | Activity (Mus musculus [11]): Active | Activity [12]: Non-Toxic | Foxp3+ cells at 0.3 µM [13]: 18.4% | inhibition (CD4+ve Th [14]): Active | Activity (CD4+ve Th [15]): Non-Toxic | inhibition (CD4+ve Th [16]): Active | Activity (Mus musculus [17]): Active | inhibition (CD4+ve Th [20]): Active | inhibition (CD4+ve Th [21]): Active | inhibition (CD4+ve Th [22]): Active | Activity (Mus musculus [24]): inactive | Activity [25]: Non-Toxic | inhibition (CD4+ve Th [27]): Active | Activity [28]: Non-Toxic | Activity (Mus musculus [29]): Active | inhibition (CD4+ve Th [30]): Active | IL17A+ cells at 0.3 µM [32]: 12.4%
